Reference: US11702442B2, “Cyclic dinucleotide compounds as sting agonists” (The Regents of the University of California, priority 2019, dated 2023)

Experiments:
STING pathway [1] = experiment: IRF3 phosphorylation in RAW 264.7 cells (immunoblot pIRF3 vs β-actin); format: cell-based, murine; details: RAW 264.7, 1, 5 and 10 μM CDN, 2 h after transfection
Description: FIGS. 2A-2B show IRF3 phosphorylation induced by c-di-GMP and its analogues. […] 1, 5 and 10 μM of each CDN was used to transfect RAW 264.7 cells. Cells were lysed with NP-40 lysis buffer 2 h post transfection, 20 μg of total protein was loaded on SDS-polyacrylamide gel. Proteins were transferred to PVDF membrane after gel electrophoresis, and immunoblotted against pIRF3 and β-actin. […] The y-axis indicates relative intensity of pIRF3 compare to β-actin.
To analyze the immunostimulatory effects of all synthetic CDNs in greater detail, RAW 264.7 cells were treated with various concentrations of c-di-GMP, c-di-tzGMP, c-di-thGMP, c-GthGMP and c-GtzGMP and the phosphorylation of IRF3 to pIRF3 was evaluated. CDNs were thus transfected into RAW 264.7 murine cells with digitonin as described in previous studies.[7b,16] Cells were then lysed with NP-40 buffer 2 h after transfection, and total protein was collected for immunoblotting against phosphorylated IRF3 (pIRF3) and β-actin. […] Two other biological replicates produced similar trends (See FIG. S2 in Yi et al, ChemBioChem, Volume 21 (2020)).
Immunoblotting. RAW 264.7 cells were plated on 24-well plates (5×10^5 cells per well) and incubate at 37° C. for 48 h. Cells were then transfected with 1-10 μM of CDN in a permeabilization buffer containing 10 μg/mL digitonin, 50 mM HEPES, pH 7, 100 mM KCl, 3 mM MgCl2, 85 mM sucrose, 1 mM ATP, 0.1 mM DTT, 0.2% BSA for 30 mins at 37° C., then incubated with regular growth medium for 2 h. Cells were lysed with NP-40 lysis buffer containing protease inhibitor cocktail (Roche), PhosSTOP (Roche) and PMSF, and total protein was collected and quantified by BCA assay. Protein extracts were resolved by SDS-PAGE with 7.5% gel and transferred to PVDF membrane. Proteins were detected with the following primary antibodies: rabbit anti-pIRF3 monoclonal antibody (Cell Signaling Technology), mouse anti-β actin monoclonal antibody (Sigma-Aldrich).

rocR = target: T1, rocR (Pseudomonas aeruginosa, UniProt Q9HX69); experiment: rocR-mediated CDN hydrolysis monitored by HPLC; format: biochemical, P. aeruginosa
T1 construct: made in house; host or cells: Escherichia coli BL21(DE3)
Description: [1a,27] rocR is a PDE that contains an EAL domain and specifically recognizes and cleaves c-di-GMP into the linear dinucleotide pGpG. […] [28a,29]
RocR is reported to follow Michaelis-Menten kinetics. [27c,28a] Scheme 2a was therefore used to analyze the reaction kinetics, where k1 and k−1 describe the enzyme/substrate association and dissociation, respectively, while k2 reflects the cleavage reaction. Equations (10)-(13) were thus used to extract the rate constants. When “asymmetrical” mixed c-di-GMP analogues are treated with rocR, the enzyme may, in principle, recognize and cleave either phosphodiester bonds, producing pN1pN2 and pN2pN1. Assuming the two products result from different binding orientation of the heterodimeric CDNs, Scheme 2b is therefore introduced to model the cleavage reactions, where k1, k−1 and k2 reflect the association/dissociation and cleavage of the heterodimeric CDN in one orientation, respectively, and k3, k−3 and k4 reflect the other. Equations (14)-(19) were used to extract the rate constants.
Equations(10)-(19) d[S]/dt=−k1[E][S]+k−1[ES] (10) d[E]/dt=−k1[E][S]+k−1[ES]+k2[ES] (11) d[P]/dt=k2[ES] (12) d[ES]/dt=k1[E][S]−k−1[ES]−k2[ES] (13) d[S]/dt=−k1[E][S]+k−1[ES1]−k3[E][S]+k−3[ES2] (14) d[P1]/dt=k2[ES1] (15) d[P2]/dt=k4[ES2] (16) d[E]/dt=−(k1+k3)[E][S]+(k−1+k2)[ES1]+[…][ES2]] (17) d[ES1]/dt=k1[E][S]−k−1[ES1]−k2[ES1] (18) d[ES2]/dt=k3[E][S]−k−3[ES2]−k4[ES2] (19)
CDN hydrolysis with rocR. […] of CDN was incubated with 100 nM of rocR in a buffer containing 100 mM Tris-HCI, pH 8, 20 mM KCI, 25 mM MgCl2 at 37° C. Aliquots of the reaction mixture were taken out at designated time points and quenched with 100 mM CaCl2. All aliquots were filtered before subjected to reverse-phase HPLC analysis. The reaction mixture was separated by Sepax Bio C-18 column (250×10 mm, 5 µm particle size) with a gradient of 0.1-15% of 10 mM NH4OAc, pH7 in Me0H in 12 minutes at 25° C. or 50° C. (only for reactions of c-GtzGMP and c-di-tzGMP) on an Agilent 1200 series HPLC system (Agilent Technologies).
Data Analysis and curve fitting. […] The relative concentrations were plotted against time.

STING pathway [2] = experiment: IFN-β mRNA production in RAW 264.7 cells by RT-qPCR; format: cell-based, murine
Description: FIGS. 3A-3C provide IFN data. […] RAW 264.7 cells were transfected with 1, 5, 10 μM of c-di-GMP, c-di-^tzGMP, c-G^thGMP, c-di-G^thGMP and c-G^tzGMP, and incubated for 2, 4, 6 h before being lysed by TRIzol. RNA purification and RT-qPCR were conducted following the protocol described in the Experimental Section. FIG. 3B show IFN response after 2, 4, 6 h of incubation with 5 μM of CDNs. […] Two independent assays were performed in triplicates (n=2). Error bars indicate SD. See Yi et al, Tuning the Innante Immune Response to Cyclic Dinucleotides by Using Atomic Mutagenesis, ChemBioChem, Volume 21 (2020).
As most synthetic c-di-GMP analogues activated IRF3, the inventors analyzed their dose and time dependency for inducing IFN-β mRNA production by using RT-qPCR. RAW 264.7 cells were transfected with 1, 5 and 10 μM of CDNs as described above and incubated for 2, 4 and 6 h. Total RNA was isolated and used for RT-qPCR. As shown in FIGS. 3A-3B, c-di-GMP induced the most IFN-β mRNA production 4 h post transfection, whereas the highest response was observed after 2 h for c-di-tzGMP, c-GthGMP, and c-GtzGMP.
RT-qPCR. RAW 264.7 cells were plated on 48-well plates (2.5×10^5 cells per well) and transfected with CDN using the same method as above after 48 h of incubation at 37° C. Cells were then incubate with regular growth medium for designated time, and total RNA was isolated with TRIzol® reagent and purified with RNeasy mini kit (Qiagen) following the manufacturer's protocol. Following elution, RNA yields were evaluated using a Nanodrop spectrophotometer (Nanodrop technologies). RNA samples were converted to cDNA with SuperScript III First-Strand Synthesis kit (Invitrogen) with random hexamers following the manufacturer's protocol. Quantitative PCR (SYBR Green) analysis was performed in duplicates on an Applied Biosystems 7300 Real-time PCR system (Invitrogen). Transcription level of IFN-β gene of each sample was normalized to housekeeping gene TBP and then to untreated samples (UT) using the delta-delta CT method.

T1 sequence (Q9HX69 whole entry): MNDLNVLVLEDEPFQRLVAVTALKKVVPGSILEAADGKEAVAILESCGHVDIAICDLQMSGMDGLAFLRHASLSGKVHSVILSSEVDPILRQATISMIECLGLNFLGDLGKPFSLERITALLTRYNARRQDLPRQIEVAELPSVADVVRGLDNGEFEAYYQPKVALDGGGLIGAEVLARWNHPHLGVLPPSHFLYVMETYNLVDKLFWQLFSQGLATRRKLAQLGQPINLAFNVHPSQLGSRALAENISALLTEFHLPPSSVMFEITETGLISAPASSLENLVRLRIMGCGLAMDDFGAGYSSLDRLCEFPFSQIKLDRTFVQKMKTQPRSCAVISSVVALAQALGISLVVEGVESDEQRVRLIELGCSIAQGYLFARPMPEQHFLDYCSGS

Compound: Nc1nc2c([C@@H]3O[C@@H]4COP(=O)(O)O[C@H]5[C@@H](O)[C@H](n6cnc7c(=O)[nH]c(N)nc76)O[C@@H]5COP(=O)(O)O[C@H]4[C@H]3O)snc2c(=O)[nH]1 [c-G^tzGMP]
- IRF3 phosphorylation (pIRF3), concentration dependence (STING pathway [1]): Increasing amounts of phosphorylated IRF3
- k2 (cleavage reaction) (rocR; 100 nM rocR, 37° C.): 3.07 ± 0.25 s⁻¹
- k2 (rocR; 100 nM rocR, 37° C., Table 3): 0.096 ± 0.091 s⁻¹
- k3 (rocR; 100 nM rocR, 37° C., Table 3): 3.07 ± 0.25 s⁻¹
- k3 (rocR; 100 nM rocR, 37° C., association in second orientation of heterodimeric CDN): 1.8e+06 ± 100000 M⁻¹ s⁻¹
- k4 (rocR; 100 nM rocR, 37° C., cleavage in second orientation): 0.34 ± 0.01 s⁻¹
- k−3 (rocR; 100 nM rocR, 37° C., dissociation in second orientation): 0.135 ± 0.007 s⁻¹
- k1 (rocR; 100 nM rocR, 37° C., enzyme/substrate association): 1.85e+06 ± 70000 M⁻¹ s⁻¹
- order of gradually reduced rocR hydrolysis rate (rocR; FIG. 10F): c-di-GMP, c-di-^tzGMP, c-G^tzGMP, c-G^thGMP and lastly c-di-^thGMP
- final percentage of product P1 (rocR; Scheme 2b): 58%
- final percentage of product P2 (rocR; Scheme 2b): 42%
- products of rocR-mediated cleavage (rocR; mixed CDNs, HPLC): two products in nearly the same amount
- IFN-β mRNA production / IFN response (STING pathway [2]; RAW 264.7, 1, 5, 10 μM CDN, 2, 4, 6 h): earlier and stronger maximum IFN-β response compared to the native c-di-GMP
- time post transfection of highest IFN-β mRNA production (STING pathway [2]; RAW 264.7, 1, 5 and 10 μM CDN, 2, 4 and 6 h tested): 2 h
- order of IFN-β induction (STING pathway [2]; RAW 264.7, RT-qPCR, FIG. 3): c-GthGMP>c-di-tzGMP>c-GtzGMP>c-di-GMP>c-di-thGMP
